According to PubChem BioAssay AID256 (DTP/NCI, 2004):
Values joined by “and” are separate entries in the source; they are usually repeats but may differ in a detail not shown here. Equal values may be shown once. Inconclusive results and toxic doses are left out. Rule for the calls: active = survival T/C of 150% or more; inactive = T/C below 125% in these data.

Tested on: CD2F1 mice, L1210 leukemia ip, survival T/C
Assay: NCI In Vivo Anticancer Drug Screen. Data for tumor model L1210 Leukemia (intraperitoneal) in CD2F1 (CDF1) mice
Conditions: higher = longer survival
How it was run: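 Vehicle-treated tumor-bearing mice served as controls (C) for compound-treated mice (T). Reported figure is T divided by C.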

[1] = endpoint: mean survival time, dose: 100.0 mg/kg/injection, schedule: Q01DX001 (ip), vehicle: saline with Tween-80
[2] = endpoint: mean survival time, dose: 400.0 mg/kg/injection, schedule: Q01DX001 (ip), vehicle: saline with Tween-80
[3] = endpoint: mean survival time, dose: 100.0 mg/kg/injection, schedule: Q01DX001 (ip), vehicle: saline
[4] = endpoint: mean survival time, dose: 200.0 mg/kg/injection, schedule: Q01DX001 (ip), vehicle: saline
[5] = endpoint: mean survival time, dose: 400.0 mg/kg/injection, schedule: Q01DX001 (ip), vehicle: saline
[6] = endpoint: mean survival time, dose: 100.0 mg/kg/injection, schedule: Q01DX009 (ip), vehicle: saline with Tween-80
[7] = endpoint: mean survival time, dose: 100.0 mg/kg/injection, schedule: Q04DX003 (ip), vehicle: saline with Tween-80
[8] = endpoint: mean survival time, dose: 200.0 mg/kg/injection, schedule: Q01DX009 (ip), vehicle: saline with Tween-80
[9] = endpoint: mean survival time, dose: 200.0 mg/kg/injection, schedule: Q04DX003 (ip), vehicle: saline with Tween-80
[10] = endpoint: mean survival time, dose: 400.0 mg/kg/injection, schedule: Q01DX009 (ip), vehicle: saline with Tween-80
[11] = endpoint: mean survival time, dose: 400.0 mg/kg/injection, schedule: Q04DX003 (ip), vehicle: saline with Tween-80
[12] = endpoint: mean survival time, dose: 100.0 mg/kg/injection, schedule: Q04DX002 (ip), vehicle: saline with Tween-80
[13] = endpoint: mean survival time, dose: 200.0 mg/kg/injection, schedule: Q04DX002 (ip), vehicle: saline with Tween-80
[14] = endpoint: mean survival time, dose: 400.0 mg/kg/injection, schedule: Q04DX002 (ip), vehicle: saline with Tween-80
[15] = endpoint: mean survival time, dose: 200.0 mg/kg/injection, schedule: Q04DX003 (ip), vehicle: saline

Measured: T/C

CN(C)CCCN=c1c2ccccc2n(C)c2[nH]c(=O)n(C)c(=O)c12
inactive: endpoint: median survival time, dose: 3.75 mg/kg/injection, schedule: Q01DX005 (ip), vehicle: saline 105 % of control | endpoint: median survival time, dose: 7.5 mg/kg/injection, schedule: Q01DX005 (ip), vehicle: saline 109 % of control | endpoint: median survival time, dose: 10.8 mg/kg/injection, schedule: Q01DX005 (ip), vehicle: saline 107 % of control | endpoint: median survival time, dose: 15.0 mg/kg/injection, schedule: Q01DX005 (ip), vehicle: saline 111 % of control and 112 % of control | endpoint: median survival time, dose: 18.0 mg/kg/injection, schedule: Q01DX005 (ip), vehicle: saline 123 % of control | endpoint: median survival time, dose: 30.0 mg/kg/injection, schedule: Q01DX005 (ip), vehicle: saline 116 % of control and 124 % of control | endpoint: median survival time, dose: 50.0 mg/kg/injection, schedule: Q01DX005 (ip), vehicle: saline 119 % of control | endpoint: median survival time, dose: 60.0 mg/kg/injection, schedule: Q01DX005 (ip), vehicle: saline 120 % of control and 101 % of control | endpoint: median survival time, dose: 120.0 mg/kg/injection, schedule: Q01DX005 (ip), vehicle: saline 119 % of control

Cn1c(-c2ccccc2)nc2c(N)ncnc21
inactive: [1] 93 % of control | [2] 87 % of control

CCN1CC2CCC(C(=O)O)(C2)C1=O (stereo not drawn)
inactive: [3] 98 % of control | [4] 106 % of control | [5] 102 % of control

CCN(Cc1cccc(S(=O)(=O)O)c1)c1ccc(C(=C2C=CC(=[N+](CC)Cc3cccc(S(=O)(=O)O)c3)C=C2)c2ccc(S(=O)(=O)O)cc2)cc1
inactive: [6] 103 % of control | [7] 96 % of control | [8] 97 % of control | [9] 93 % of control | [10] 95 % of control | [11] 90 % of control

CN(C)c1ccc(C(=C2C=CC(=[N+](C)C)C=C2)c2ccc(N(C)C)cc2)cc1 (tested in a mixture with another compound)
inactive: endpoint: mean survival time, dose: 0.15 mg/kg/injection, schedule: Q01DX009 (ip), vehicle: saline with Tween-80 110 % of control | endpoint: mean survival time, dose: 0.31 mg/kg/injection, schedule: Q01DX009 (ip), vehicle: saline with Tween-80 100 % of control | endpoint: mean survival time, dose: 0.31 mg/kg/injection, schedule: Q01DX009 (ip), vehicle: suspension in saline 97 % of control | endpoint: mean survival time, dose: 0.62 mg/kg/injection, schedule: Q01DX009 (ip), vehicle: saline with Tween-80 105 % of control | endpoint: mean survival time, dose: 0.62 mg/kg/injection, schedule: Q01DX009 (ip), vehicle: suspension in saline 106 % of control | endpoint: mean survival time, dose: 1.25 mg/kg/injection, schedule: Q01DX009 (ip), vehicle: saline with Tween-80 113 % of control | endpoint: mean survival time, dose: 1.25 mg/kg/injection, schedule: Q01DX009 (ip), vehicle: suspension in saline 101 % of control | endpoint: mean survival time, dose: 2.5 mg/kg/injection, schedule: Q01DX009 (ip), vehicle: saline with Tween-80 117 % of control | endpoint: mean survival time, dose: 2.5 mg/kg/injection, schedule: Q01DX009 (ip), vehicle: suspension in saline 106 % of control

CN(C)c1ccc(/C=C/c2ccc3ccccc3n2)c(F)c1
inactive: endpoint: mean survival time, dose: 100.0 mg/kg/injection, schedule: Q01DX009 (ip), vehicle: Klucel (hydroxypropylcellulose) (HPC) 100 % of control | endpoint: mean survival time, dose: 200.0 mg/kg/injection, schedule: Q01DX009 (ip), vehicle: Klucel (hydroxypropylcellulose) (HPC) 98 % of control | endpoint: mean survival time, dose: 400.0 mg/kg/injection, schedule: Q01DX009 (ip), vehicle: Klucel (hydroxypropylcellulose) (HPC) 89 % of control

CC1CN1P(=O)(N1CC1C)N1CC1C.CC1CN1P(=O)(N1CC1C)N1CC1C.CC1CN1P(=O)(N1CC1C)N1CC1C.CC1CN1P(=O)(N1CC1C)N1CC1C.CC1CN1P(=O)(N1CC1C)N1CC1C.CC1CN1P(=O)(N1CC1C)N1CC1C.[Fe+3].[O-][Cl+3]([O-])([O-])O (stereo not drawn)
inactive: [12] 98 % of control | [13] 98 % of control | [14] 115 % of control

O=C1CSC(c2ccccc2)N1 (stereo not drawn)
inactive: endpoint: mean survival time, dose: 50.0 mg/kg/injection, schedule: Q04DX003 (ip), vehicle: saline with Tween-80 102 % of control | [7] 100 % of control | [9] 100 % of control

ClCC(Cl)CN(Cc1ccccc1)Cc1ccccc1 (stereo not drawn)
inactive: [1] 102 % of control | [6] 102 % of control | endpoint: mean survival time, dose: 200.0 mg/kg/injection, schedule: Q01DX001 (ip), vehicle: saline with Tween-80 93 % of control | [8] 104 % of control | [2] 98 % of control

OCCCl
inactive: endpoint: mean survival time, dose: 75.0 mg/kg/injection, schedule: Q01DX001 (ip), vehicle: saline 104 % of control | endpoint: mean survival time, dose: 150.0 mg/kg/injection, schedule: Q01DX001 (ip), vehicle: saline 103 % of control

COc1ccc(-n2c(=O)c(N=Nc3ccccc3)c(O)n(-c3ccc(C)cc3)c2=S)cc1
inactive: endpoint: mean survival time, dose: 100.0 mg/kg/injection, schedule: Q01DX001 (ip), vehicle: acetone 96 % of control | endpoint: mean survival time, dose: 200.0 mg/kg/injection, schedule: Q01DX001 (ip), vehicle: acetone 94 % of control | endpoint: mean survival time, dose: 400.0 mg/kg/injection, schedule: Q01DX001 (ip), vehicle: acetone 96 % of control

CC1=NCC[N-]C(C)(C)CC(C)=NCC[N-]C(C)(C)C1.[Ni+2].[O-][Cl+3]([O-])([O-])O
inactive: endpoint: mean survival time, dose: 100.0 mg/kg/injection, schedule: Q04DX003 (ip), vehicle: saline 96 % of control | [15] 97 % of control

Cc1ccc([N+](=O)[O-])cc1NC(=O)NNC(=O)CNC(=O)Nc1cccc([N+](=O)[O-])c1
inactive: [6] 88 % of control | [8] 86 % of control | [10] 104 % of control

COc1ccc(NC(=O)Nc2ccccc2OC)c(Cl)c1
inactive: [12] 94 % of control | [13] 87 % of control | [14] 97 % of control

CCOC(=O)c1c[nH]c2ccc([N+](=O)[O-])cc2c1=O
inactive: endpoint: mean survival time, dose: 100.0 mg/kg/injection, schedule: Q01DX001 (ip), vehicle: Klucel (hydroxypropylcellulose) (HPC) 111 % of control | [6] 97 % of control | [7] 90 % of control | endpoint: mean survival time, dose: 200.0 mg/kg/injection, schedule: Q01DX001 (ip), vehicle: Klucel (hydroxypropylcellulose) (HPC) 96 % of control | [8] 100 % of control | [9] 91 % of control | endpoint: mean survival time, dose: 400.0 mg/kg/injection, schedule: Q01DX001 (ip), vehicle: Klucel (hydroxypropylcellulose) (HPC) 100 % of control | [10] 94 % of control | [11] 88 % of control

CN(C)CCCN1c2ccccc2Sc2ccc(Cl)cc21
inactive: endpoint: mean survival time, dose: 12.5 mg/kg/injection, schedule: Q01DX001 (ip), vehicle: saline 107 % of control | endpoint: mean survival time, dose: 12.5 mg/kg/injection, schedule: Q01DX009 (ip), vehicle: saline with Tween-80 115 % of control | endpoint: mean survival time, dose: 25.0 mg/kg/injection, schedule: Q01DX001 (ip), vehicle: saline 117 % of control | endpoint: mean survival time, dose: 25.0 mg/kg/injection, schedule: Q01DX009 (ip), vehicle: saline with Tween-80 86 % of control | endpoint: mean survival time, dose: 50.0 mg/kg/injection, schedule: Q01DX001 (ip), vehicle: saline 120 % of control | [3] 111 % of control | [15] 97 % of control | endpoint: median survival time, dose: 15.0 mg/kg/injection, schedule: Q01DX001 (ip), vehicle: water 118 % of control and 107 % of control | endpoint: median survival time, dose: 25.0 mg/kg/injection, schedule: Q01DX001 (ip), vehicle: water 119 % of control and 107 % of control | endpoint: median survival time, dose: 30.0 mg/kg/injection, schedule: Q04DX003 (ip), vehicle: saline 80 % of control | endpoint: median survival time, dose: 50.0 mg/kg/injection, schedule: Q01DX001 (ip), vehicle: water 114 % of control and 120 % of control | endpoint: median survival time, dose: 60.0 mg/kg/injection, schedule: Q04DX003 (ip), vehicle: saline 80 % of control | endpoint: median survival time, dose: 75.0 mg/kg/injection, schedule: Q01DX001 (ip), vehicle: water 114 % of control | endpoint: median survival time, dose: 120.0 mg/kg/injection, schedule: Q04DX003 (ip), vehicle: saline 87 % of control

CC(=O)S[C@@H]1CC2=CC(=O)CC[C@]2(C)[C@H]2CC[C@@]3(C)[C@@H](CC[C@@]34CCC(=O)O4)[C@H]12
inactive: endpoint: mean survival time, dose: 100.0 mg/kg/injection, schedule: Q04DX003 (sc), vehicle: steriod suspending solution 95 % of control | endpoint: mean survival time, dose: 200.0 mg/kg/injection, schedule: Q04DX003 (sc), vehicle: steriod suspending solution 97 % of control | endpoint: mean survival time, dose: 400.0 mg/kg/injection, schedule: Q04DX003 (sc), vehicle: steriod suspending solution 98 % of control

NCCCCCBr
inactive: endpoint: mean survival time, dose: 50.0 mg/kg/injection, schedule: Q01DX009 (ip), vehicle: saline 98 % of control | endpoint: mean survival time, dose: 100.0 mg/kg/injection, schedule: Q01DX009 (ip), vehicle: saline 90 % of control | endpoint: mean survival time, dose: 200.0 mg/kg/injection, schedule: Q01DX009 (ip), vehicle: saline 98 % of control

Nc1nc(Cl)c2nc(Cl)n(C3OC(CO)C(O)C3O)c2n1 (stereo not drawn)
inactive: [3] 102 % of control | [4] 102 % of control | [5] 100 % of control
